Experimental data published in patent US20180362580A1, “CRYSTALLINE AND AMORPHOUS FORMS OF CARFILZOMIB” (Mylan Laboratories Limited, priority 2015, published 2018).
“Also recorded” adds a separate entry of the source.

Experiment: Long term storage stability of the crystalline form, measured by PXRD
Assay type: physicochemical
Settings: stored at 2° C. to 8° C. for one year; solid form checked by PXRD
Method: The polymorphs disclosed herein may be characterized by their X-ray powder diffraction (PXRD) patterns. Thus, samples of carfilzomib prepared by processes disclosed herein, including crystalline carfilzomib form M1 and amorphous carfilzomib, were analyzed by PXRD on a BRUKER D-8 DISCOVER powder diffractometer equipped with goniometer of θ/2θ configuration and LYNX EYE detector. The Cu-anode X-ray tube was operated at 40 kV and 30 mA. The experiments were conducted over the 2θ range of 2.0°-50.0°, 0.030° step size, and 0.4 seconds step time.
In some samples, individual impurities were present at levels less than 0.1%.

CC(C)C[C@H](NC(=O)[C@H](CCc1ccccc1)NC(=O)CN1CCOCC1)C(=O)N[C@@H](Cc1ccccc1)C(=O)N[C@@H](CC(C)C)C(=O)[C@@]1(C)CO1 [crystalline carfilzomib form M1, (2S)-N-((S)-1-((S)-4-methyl-1-((R)-2-methyloxiran-2-yl)-1-oxopentan-2-ylcarbamoyl)-2-phenylethyl)-2-((S)-2-(2-morpholinoacetamido)-4-phenylbutanamido)-4-methylpentanamide]
stability (measured by PXRD): exhibited stability; also recorded: stable
